Reference: PMC12119673, “Apoptotic cell death induced by copper (II), manganese (II) and silver (I) complexes containing bridging dicarboxylate and 1,10-phenanthroline ligands: one of the multi-modes of anticancer activity?” (Biometals, 2025)
Where two headings read alike, the source gives them in different places.

Assays:
Format in all cases: cell-based, human
[1] = tested on: apoptotic genes in MCF-7 cells; experiment: Apoptosis-related gene expression, qRT-PCR; settings: MCF-7, IC25 concentration, 24 h, relative to negative control
Protocol: (§1) A broad scope of molecular targets involved in the apoptotic pathway were selected for analysis using qRT-PCR including initiators, mediators and inhibitors. These gene targets along with their cellular location and associated primer set are outlined in Table 2. Primer sets for each gene were designed using NCBI nucleotide sequences and the Primer3 application (Table 3). Once designed, the primers were synthesised by Sigma Aldrich, Ireland.
(§2) MCF-7 and MCF-12A cells were seeded at a density of 1 × 10^5 in T25 flasks and incubated for 24 h allowing for attachment. Following incubation, the seeding media was removed, and the cells were washed with PBS. […] Post-exposure, RNA was isolated from the cells. Tri-reagent^Ⓡ (Sigma, Ireland) (Cat# T9424) was added to the cells followed by centrifugation at 300 g for 5 min. The RNA was precipitated using chloroform, followed by centrifugation and washing of the pellet using 75% ethanol. The RNA was resuspended in 30 μl of nuclease-free water. The RNA was either used immediately for qRT-PCR or stored at −80 ℃. The RNA from each sample was quantified using the NanoDrop™ 2000 Spectrophotometer (Thermo Fisher Scientific, Ireland). The A260/A230 ratio was measured to ensure the purity of each sample. Prior to cDNA synthesis, all samples were adjusted to a concentration of 100 ng. The RNA was then reverse transcribed into cDNA using the Quanta Biosciences Kit (Quanta Biosciences, USA) (Cat# 95047). Using the SimpliAmp Thermal Cycler (Applied Biosystems; Thermo Fisher Scientific, Ireland), the following settings were applied: 5 min at 22 ℃, 30 min at 42 ℃, 5 min at 85 ℃; samples were then maintained in an indefinite hold at 4 ℃ prior to being used for quantitative real-time PCR. The cDNA templates were amplified and analysed using SYBR™ Green (Fisher Scientific, UK) (Cat#10187094). Using the 7500 fast Real-Time PCR System (Applied Biosystems, USA), the following thermal cycling setting were applied for amplification: Pre-Incubation (1 cycle) 95 ℃, 5 Minutes, 4.4 ℃ ramp; Amplification (45 cycles) 95 °C 10 s ramp 4.4 °C, 60 °C 10 s ramp 2.2 °C, 72 °C 10 s ramp 4.4 °C; Melting Curve (1 cycle) 95 °C 5 s ramp 4.4 °C, 65 °C 1 min ramp 2.2 °C, 97 °C continuous ramp 0.11 °C acquisition 10 per °C; Cooling (1 cycle) 40 °C 10 s ramp 1.5 °C. Two reference genes, actin and tubulin, were employed to determine the expression of the target genes. No template controls were included to confirm the absence of template contamination and auto-fluorescence. Each PCR plate contained three technical replicates per sample and gene target, with each experiment repeated three independent times using three individual biological replicates.
(§3) qRT-PCR data was analysed by first using the Vandesompele method to calculate the geometric mean of Ct values for the reference genes, actin and tubulin. These values were used for normalisation of the target gene expression values which were then calculated using the Livak and Schmittgen formula: 2^−ΔCt1(test)−ΔCt2(control) (Livak and Schmittgen [2001]; Vandesompele et al. [2002]).
(§4) The expression profiles (Fig. 4) display the log(2) transformed mean expression value for each gene target relative to the negative control. Expression values for each target were determined relative to the geometric means of reference genes. […] Each graph contains a threshold line, set at the value of one, this represents baseline expression levels of genes.

[2] = tested on: apoptotic genes in MCF-12A cells; experiment: Apoptosis-related gene expression, qRT-PCR; settings: IC25 concentration, 24 h, relative to negative control
Protocol: as §1, §2, §3, §4

[3] = tested on: caspase-3/7 in MCF-7 cells; experiment: Caspase 3/7 expression, FLICA (FAM-DEVD-FMK) flow cytometry; settings: MCF-7, IC25 concentration, 24 h
Protocol: The expression of caspase-3/7 in MCF-7 and MCF-12A cells was determined using the VybrantTM FAM™ Caspase-3 and Caspase-7 Assay Kit (Cat# V35118) (Thermo Fisher Scientific, Ireland). Cells were seeded at a density of 1 × 10^5 in T25 flasks and incubated in routine conditions for 24 h. […] Post-exposure, the cells were harvested for staining.
(§5) Flow cytometry data analysis was performed with the CytExpert package (Ver. 2.4) (Beckman Coulter, USA) and Microsoft^Ⓡ Excel (USA). The mean MFI and percentage cells were calculated using these packages, followed by one-way ANOVA analysis with post hoc Bonferroni correction using GraphPad Prism (Ver. 9.4) (GraphPad, USA).
The expression of caspase-3/7 was analysed in MCF-7 and MCF-12A cells using fluorescent labelled inhibitors of caspase (FLICA): FAM-DEVD-FMK. […] Following the apoptosis induction study, it was of interest to determine whether the complexes were stimulating the executioner caspases triggering the irreversible proteolytic degradation of cells, culminating in cell death. […] These three complexes were selected based on their structural similarities, while incorporating alternative metal centres.

MCF-12A cells = experiment: In vitro cytotoxicity assessment, alamar blue assay, 24-h exposure
Protocol: The MCF-7 (human breast cancer) and MCF-12A (non-tumourigenic human breast) cell lines were obtained from the Technological University Dublin (TUDublin, City Campus) internal cell bank and commercially from the American Type Culture Collection (ATCC), respectively. Both cell lines were cultured using Dulbecco’s Modified Eagle Medium/Nutrient Mixture F-12 Ham (DMEM-F12) (Sigma, Ireland) (Cat# D6421) media. The MCF-7 media was supplemented with 10% Foetal Bovine Serum (Sigma, Ireland) (Cat# F7524) and 1% L-Glutamine (Sigma, Ireland) (Cat# 592020C). The MCF-12A media was supplemented with 5% Equine Serum (Sigma, Ireland) (Cat# H0146) 1.25% L-Glutamine (Sigma, Ireland) (Cat# 592020C), 20 ng/ml Human Epidermal Growth Factor (Thermo Fisher Scientific, Ireland) (Cat# PHG0313), 0.01 mg/ml insulin (Thermo Fisher Scientific, Ireland)(Cat# 12585014) and 500 ng/ml hydrocortisone (Sigma, Ireland) (Cat# H0888). The cells were grown in T75 culture flasks (Sarstedt, Germany) (Cat# 83.3911.002) and were incubated in a 5% CO2 atmosphere at 37 ℃. The cells were monitored daily, and once 80–90% confluence was reached, they were subcultured with an enzymatic dissociation method using trypsin. Both cell lines were routinely subcultured for 1 week prior to beginning experimental work, to ensure the cells had adapted to the environment.
The MCF-7 and MCF-12A cells were seeded at a density of 1 × 10^4 in 96-well flat bottom plates (Sarstedt, Germany) (Cat# 83.3924) and incubated in a 5% CO2 atmosphere at 37 ℃ for 24 h prior to exposure to the complexes. Following the incubation period, the media was removed, and cells were washed with sterile phosphate-buffered saline (PBS). […] All agents were diluted in supplemented cell culture media, and the cells were exposed to a concentration range of 0.5 μM–100 μM for 24 h in the conditions outlined previously. Following the exposure period, the drug-containing media was removed, and cells were washed three times with PBS, ensuring complete removal of the test agents. A 5% working solution of Alamar Blue (Thermo Fisher Scientific, Ireland) (Cat# DAL1100) was prepared in dark conditions using unsupplemented cell culture media. 100 μl of the solution was added to each well, and the cells were incubated for 3 h. Following incubation, absorbance values were obtained using a Varioskan Lux (Thermo Scientific, USA) at 570 nm and 600 nm wavelengths. Each exposure was carried out in triplicate plates and was repeated three independent times.
The software packages Microsoft^Ⓡ Excel (USA) and GraphPad Prism (Ver. 10.0.3) (GraphPad, USA) were used to analyse the alamar blue data. The treated sample values were first normalised to the negative control values. After normalisation, the mean and standard deviations (SD) were established using Microsoft^Ⓡ Excel. The statistical analysis package GraphPad was then used to determine the IC25 and IC50 concentrations. […] A p value of 0.05 or lower is considered to be statistically significant.

MCF-7 cells [4] = experiment: as above
Protocol: The MCF-7 (human breast cancer) and MCF-12A (non-tumourigenic human breast) cell lines were obtained from the Technological University Dublin (TUDublin, City Campus) internal cell bank and commercially from the American Type Culture Collection (ATCC), respectively. Both cell lines were cultured using Dulbecco’s Modified Eagle Medium/Nutrient Mixture F-12 Ham (DMEM-F12) (Sigma, Ireland) (Cat# D6421) media. The MCF-7 media was supplemented with 10% Foetal Bovine Serum (Sigma, Ireland) (Cat# F7524) and 1% L-Glutamine (Sigma, Ireland) (Cat# 592020C). The MCF-12A media was supplemented with 5% Equine Serum (Sigma, Ireland) (Cat# H0146) 1.25% L-Glutamine (Sigma, Ireland) (Cat# 592020C), 20 ng/ml Human Epidermal Growth Factor (Thermo Fisher Scientific, Ireland) (Cat# PHG0313), 0.01 mg/ml insulin (Thermo Fisher Scientific, Ireland)(Cat# 12585014) and 500 ng/ml hydrocortisone (Sigma, Ireland) (Cat# H0888). The cells were grown in T75 culture flasks (Sarstedt, Germany) (Cat# 83.3911.002) and were incubated in a 5% CO2 atmosphere at 37 ℃. […] Following the incubation period, the media was removed, and cells were washed with sterile phosphate-buffered saline (PBS). […] Following the exposure period, the drug-containing media was removed, and cells were washed three times with PBS, ensuring complete removal of the test agents. A 5% working solution of Alamar Blue (Thermo Fisher Scientific, Ireland) (Cat# DAL1100) was prepared in dark conditions using unsupplemented cell culture media. 100 μl of the solution was added to each well, and the cells were incubated for 3 h. […] Each exposure was carried out in triplicate plates and was repeated three independent times. The software packages Microsoft^Ⓡ Excel (USA) and GraphPad Prism (Ver. 10.0.3) (GraphPad, USA) were used to analyse the alamar blue data. The treated sample values were first normalised to the negative control values. After normalisation, the mean and standard deviations (SD) were established using Microsoft^Ⓡ Excel. The statistical analysis package GraphPad was then used to determine the IC25 and IC50 concentrations.

MCF-7 cells [5] = experiment: Apoptosis induction, Annexin V / propidium iodide flow cytometry; settings: MCF-7, IC25 concentration, 24 h
Protocol: MCF-7 and MCF-12A cells were seeded at a density of 1 × 10^5 in T25 flasks (Sarstedt, Germany) and incubated for 24 h at 37 °C with 5% CO2 allowing for attachment. Post -incubation, the media was removed, cells were washed with sterile PBS and then treated using IC25 concentrations established from the in vitro cytotoxicity screen. […] After the exposure period, the cells were enzymatically detached using trypsin, collected and centrifuged at 1200RPM for 10 min. The cells were then washed with PBS, re-centrifuged and resuspended in 1 ml of annexin binding buffer. Prior to staining, the concentration of each sample was adjusted to 1 × 10^6 cells/ml. The cells were stained with 1 μl of propidium iodide (PI) (Sigma, Ireland) (Cat #P4864) and 2 μl of Annexin V (Thermo Fisher Scientific, Ireland) (Cat #A13199). The cells were incubated at room temperature for 15 min prior to analysis. The staining process was completed in the dark to eliminate interference with photo-sensitive reagents. Immediately prior to analysis by flow cytometry, 400 μl of annexin binding buffer was added to each sample. Samples were analysed using a (CytoFLEX) (Beckman Coulter, USA). The AV/PI assay was completed three independent times.
as §5
The induction of apoptosis was analysed in MCF-7 and MCF-12A cells using the Annexin V and Propidium Iodide assay with flow cytometry. […] The assay allows for the differentiation of viable, apoptotic and necrotic cells based on the selective staining of Annexin V and PI. Annexin V binds to phosphatidylserines externalised to the outer leaflet of the plasma membrane during apoptosis; and PI is a membrane impermeable dye that binds to DNA of necrotic cells with compromised plasma membranes.

[6] = MCF-12A, 24-hour exposure, per one metal centre, mean ± S.D. (N=3)
[7] = MCF-12A, 24-hour exposure, per one metal centre, mean ± S.D. (N=3), read-out: IC50 calculated per one metal centre
[8] = MCF-7, 24-hour exposure, per one metal centre, mean ± S.D. (N=3)
[9] = MCF-7, 24-hour exposure, per one metal centre, mean ± S.D. (N=3), read-out: IC50 calculated per one metal centre
[10] = MCF-12A, 24-h exposure, 25% reduction in metabolic activity, mean ± SD (N = 3)
[11] = MCF-7, 24-h exposure, 25% reduction in metabolic activity, mean ± SD (N = 3)

Row | SMILES | Caspase gene expression (caspase-9, -8, -3) [1] | Pro-apoptotic gene expression (BID, BIM, BAD, BAX) [1] | Caspase gene expression (caspase-9, -8, -3) [2] | Pro-apoptotic gene expression (BID, BIM, BAD, BAX) [2] | Expression of caspase-3/7 (% cells) [3] | Cytotoxic activity IC25 ± SD (MCF-12A cells) | IC50 (MCF-12A cells) | IC25 calculated per one metal centre (MCF-12A cells; [6]) | IC50 (MCF-12A cells; [7]) | Cytotoxic activity IC25 ± SD (MCF-7 cells [4]) | IC50 (MCF-7 cells [4]) | IC25 calculated per one metal centre (MCF-7 cells [4]; [8]) | IC50 (MCF-7 cells [4]; [9]) | Cytotoxic activity IC25 ± SD (MCF-12A cells; [10]) | Necrotic population (% cells) (MCF-7 cells [5]) | Decrease in toxicity compared to phen-containing complex 4 (MCF-7 cells [4]; Ag(I) pre-cursor vs complex 4) | Decrease in toxicity compared to phen-containing complex 5 (MCF-7 cells [4]; Ag(I) pre-cursor vs complex 5) | Cytotoxic activity IC25 ± SD (MCF-7 cells [4]; [11]) | IC50 (MCF-12A cells; MCF-12A, 24-h exposure, 50% reduction in metabolic activity, mean ± SD (N = 3), read-out: Cytotoxic activity IC50 ± SD) | IC50 (MCF-7 cells [4]; MCF-7, 24-h exposure, 50% reduction in metabolic activity, mean ± SD (N = 3), read-out: Cytotoxic activity IC50 ± SD)
1 | N.N.[Cl][Pt][Cl] [Cisplatin, reference compound] | all caspases seen to be activated | pro-apoptotic BIM and BAD were upregulated | all caspases seen to be activated | pro-apoptotic BIM and BAD were upregulated | lowest expression levels |  |  |  |  |  |  |  |  |  |  |  |  |  |  | 
2 | O=C([O-])CCCCCCC(=O)[O-].O=C([O-])CCCCCCC(=O)[O-].[Cu+2].[Cu+2] [Complex 3, [Cu2(oda)2]] |  |  |  |  |  | > 100 µM | > 100 µM | >100  µM | > 100 µM | > 100 µM | > 100 µM | >100  µM | > 100 µM |  |  |  |  |  |  | 
3 | O=C([O-])CCCCCCC(=O)[O-].[Ag+].[Ag+] [Complex 6, [Ag2(oda)]] |  |  |  |  |  |  |  | 12.86 ± 9.80 µM |  |  |  | 27.80 ± 5.86 µM |  | 6.43 ± 4.9 µM | high necrotic populations | approximately twofold | ~3.5 fold | 13.90 ± 2.93 µM |  | 
4 | O.O=C([O-])CCCCCCC(=O)[O-].[Mn+2] [Complex 8, [Mn(oda)]⋅H2O] |  |  |  |  |  |  |  | >100  µM | > 100 µM |  |  | >100  µM | > 100 µM | > 100 µM |  |  |  | > 100 µM | > 100 µM | > 100 µM
